In patent US8288416B2, “Substituted piperidinophenyl oxazolidinones” (Wockhardt Ltd., priority 2006, dated 2012):
Structures can show the parent of a compound that is named as a salt. Where two headings read alike, the source gives them in different places. Blank lines part the entries; values can stand above or below the compound they belong to.

Columns and labels:
Aqueous solubility = format: physicochemical; settings: for solubility: aqueous
[1] = pH 7, aqueous buffer, pH 7, read-out: Aqueous solubility at pH 7

Structure (SMILES): COCC1(OP(=O)(O)O)CCN(c2c(F)cc(N3C[C@H](CNC(C)=O)OC3=O)cc2F)CC1 [Example 3, Phosphoric acid mono-(1-{4-[(S)-5-(acetylamino-methyl)-2-oxo-oxazolidin-3-yl]-2,6-difluorophenyl}-4-methoxymethyl-piperidin-4-yl)ester]
solubility (Aqueous solubility; pH not stated, read-out: Aqueous solubility): > 200 mg/mL | melting point: > 140 °C

Structure (SMILES): COCC1(OP(=O)(O)O)CCN(c2c(F)cc(N3C[C@H](CNC(C)=O)OC3=O)cc2F)CC1 [Example 4, Phosphoric acid mono-(1-{4-[(S)-5-(acetylamino-methyl)-2-oxo-oxazolidin-3-yl]-2,6-difluoro-phenyl}-4-methoxymethyl-piperidin-4-yl)ester di sodium salt]
Aqueous solubility at pH 7 (Aqueous solubility; pH 7, di sodium salt): > 200 mg/ml

Structure (SMILES): COCC1(OP(=O)(O)O)CCN(c2c(F)cc(N3C[C@H](CNC(C)=O)OC3=O)cc2F)CC1 [Example 5, Phosphoric acid mono-(1-{4-[(S)-5-(acetylamino-methyl)-2-oxo-oxazolidin-3-yl]-2,6-difluoro-phenyl}-4-methoxymethyl-piperidin-4-yl)ester di potassium salt]
Aqueous solubility at pH 7 (Aqueous solubility; pH 7, di potassium salt): > 200 mg/ml

Structure (SMILES): COCC1(OP(=O)(O)O)CCN(c2c(F)cc(N3C[C@H](CNC(C)=O)OC3=O)cc2F)CC1 [Example 6, Phosphoric acid mono-(1-{4-[(S)-5-(acetylamino-methyl)-2-oxo-oxazolidin-3-yl]-2,6-difluoro-phenyl}-4-methoxymethyl-piperidin-4-yl)ester magnesium salt]
Aqueous solubility at pH 7 (Aqueous solubility; pH 7): ~2 mg/ml

Structure (SMILES): COCC1(OP(=O)([O-])[O-])CCN(c2c(F)cc(N3C[C@H](CNC(C)=O)OC3=O)cc2F)CC1.[Ca+2] [Example 7, Phosphoric acid mono-(1-{4-[(S)-5-(acetylamino-methyl)-2-oxo-oxazolidin-3-yl]-2,6-difluoro-phenyl}-4-methoxymethyl-piperidin-4-yl)ester calcium salt]
solubility (Aqueous solubility; [1]): ~0.5 mg/mL

solubility (Aqueous solubility; [1]): > 100 mg/mL
Structure (SMILES): COCC1(OC(=O)CN)CCN(c2c(F)cc(N3C[C@H](CNC(C)=O)OC3=O)cc2F)CC1.Cl [Example 11, 2-Amino-acetic acid 1-{4-[(S)-5-(acetylamino-methyl)-2-oxo-oxazolidin-3-yl]-2,6-difluorophenyl}-4-methoxymethyl-piperidin-4-yl ester hydrochloride salt]

Aqueous solubility at pH 7 (Aqueous solubility; pH 7): > 100 mg/ml
Structure (SMILES): COCC1(OC(=O)CN)CCN(c2c(F)cc(N3C[C@H](CNC(C)=O)OC3=O)cc2F)CC1.O=C(O)C(F)(F)F [Example 12, 2-Amino-acetic acid 1-{4-[(S)-5-(acetylamino-methyl)-2-oxo-oxazolidin-3-yl]-2,6-difluorophenyl}-4-methoxymethyl-piperidin-4-yl ester triflouroacetic acid salt]

Structure (SMILES): COCC1(C(=O)[C@H](C)NC(=O)OC(C)(C)C)CCN(c2c(F)cc(N3C[C@H](CNC(C)=O)OC3=O)cc2F)CC1 [Example 13, (S)—N-{3-[3,5-difluoro-4-(4-(S)-2-tert-butoxycarbonylamino-propionyl-4-methoxymethyl-piperidine-1-yl)phenyl]-2-oxo-oxazolidin-5-ylmethyl}-acetamide]
Aqueous solubility at pH 7 (Aqueous solubility; pH 7): > 100 mg/ml

solubility (Aqueous solubility; [1]): > 100 mg/mL
Structure (SMILES): COCC1(OC(=O)C(C)N)CCN(c2c(F)cc(N3C[C@H](CNC(C)=O)OC3=O)cc2F)CC1.Cl (stereo partly drawn) [Example 14, 2-Amino-propionic acid 1-{4-[(S)-5-(acetylamino-methyl)-2-oxo-oxazolidin-3-yl]-2,6-difluorophenyl}-4-methoxymethyl-piperidin-4-yl ester hydrochloride salt]

Aqueous solubility at pH 7 (Aqueous solubility; pH 7): > 100 mg/ml
Structure (SMILES): COCC1(OC(=O)C(C)N)CCN(c2c(F)cc(N3C[C@H](CNC(C)=O)OC3=O)cc2F)CC1.O=C(O)C(F)(F)F (stereo partly drawn) [Example 15, 2-Amino-propionic acid 1-{4-[(S)-5-(acetylamino-methyl)-2-oxo-oxazolidin-3-yl]-2,6-difluorophenyl}-4-methoxymethyl-piperidin-4-yl ester triflouroacetic acid salt]

Structure (SMILES): COCC1(C(=O)[C@@H](NC(=O)OCc2ccccc2)C(C)C)CCN(c2c(F)cc(N3C[C@H](CNC(C)=O)OC3=O)cc2F)CC1 [Example 16, (S)—N-{3-[3,5-Difluoro-4-(4-(S)-2-carbobenzyloxyamino-3,3-dimethylpropionyl-4-methoxymethyl-piperidine-1-yl)phenyl]-2-oxo-oxazolidin-5-ylmethyl}-acetamide]
Aqueous solubility at pH 7 (Aqueous solubility; pH 7): > 100 mg/ml

Structure (SMILES): COCC1(OC(=O)C(N)C(C)C)CCN(c2c(F)cc(N3C[C@H](CNC(C)=O)OC3=O)cc2F)CC1.CS(=O)(=O)O (stereo partly drawn) [Example 17, 2-Amino-3,3-dimethylpropionic acid 1-{4-[(S)-5-(acetylamino-methyl)-2-oxo-oxazolidin-3-yl]-2,6-difluorophenyl}-4-methoxymethyl-piperidin-4-yl ester methane sulfonic acid salt]
solubility (Aqueous solubility; pH 7, aqueous buffer, read-out: Aqueous solubility at pH 7): > 100 mg/mL
